Experimental data: publication PMC4028696, “Development of a screen to identify selective small molecules active against patient-derived metastatic and chemoresistant breast cancer cells” (Breast Cancer Research : BCR, 2013)

Columns and labels:
[1] = Chemical screen, difference in ATP viability between normal and tumor cells; format: cell-based; details: human, four days, duplicate, read-out: difference in viability between the hTERT-HMEC and PE1007070 cells (selectivity)
Experimental: The hTERT-HMEC and PE1007070 cells were seeded in white 96-well plates (Costar) in 100 μL of modified M87 media at varying densities to achieve 80% to 90% confluency at the end of the assay. The 10 mM DMSO stock solutions from the 560-compound University of Utah Department of Chemistry library were diluted with modified M87 media utilizing an EP Motion 5075 (Eppendorf North America) liquid handler. In addition, corresponding DMSO vehicle and doxorubicin controls were prepared in modified M87 media. After the cells were cultured for 24 hours, 80 μL of media was aspirated from each well. […] After four days of treatment, viability was determined utilizing the ATPlite 1step assay system (Perkin Elmer) according to the manufacturer's instructions. Luminescence measurements were acquired utilizing a Perkin Elmer 2104 EnVision plate reader. Raw luminescence values were normalized to the DMSO vehicle control wells for each plate and cell type. […]
Reagent/ compound dispensing system Eppendorf EP Motion 5075 (Compound dilution) Detection instrument and software Luminescence was detected with a Perkin Elmer Envision 2104 Assay validation/QC 20 µM Doxorubicin was used as a positive control and used to […]
Additional comments Selectivity of compounds was determined by subtracting the average viability of the PE1007070 from the hTERT-HMEC cells […]

[2] = Dose response assay, ATPlite viability, four days; format: cell-based; details: human, MCF-10A cells, 200 μM C-6, read-out: cells still viable
Experimental: (§1) Cells were seeded in white 96-well plates (Costar, Tewksbury, MA, USA) in 100 μL of their respective media at varying densities to achieve 80% to 90% confluency after five days in culture. The compounds dissolved in DMSO were diluted in their corresponding media containing 2% FBS and an EP Motion 5075 (Eppendorf North America, Hauppauge, NY, USA) liquid handler was utilized to perform a serial dilution. […] After the cells were cultured for 24 hours, the media were aspirated and the cells were treated with the compounds and vehicle controls in triplicate. After four days of treatment, viability was determined utilizing the ATPlite 1step assay system (Perkin Elmer, Waltham, MA, USA) according to the manufacturer's instructions. Luminescence measurements were acquired utilizing a Perkin Elmer 2104 EnVision plate reader. Raw luminescence values were normalized to the DMSO vehicle control wells.

MDA-MB-231 cells = experiment: Dose response assay, ATPlite viability, four days; format: cell-based, human; details: Homo sapiens, 96 h; MDA-MB-231, four days of treatment, ATP viability
Experimental: as §1

hTERT-HMEC cells = experiment: Dose response assay, ATPlite viability, four days; format: cell-based, human
Experimental: as §1

PE1007070 cells = experiment: Dose response assay, ATPlite viability, four days; format: cell-based, human; details: Homo sapiens, 96 h, PE1007070, four days of treatment, ATP viability
Experimental: as §1

T47D cells = experiment: Dose response assay, ATPlite viability, four days; format: cell-based, human; details: Homo sapiens, 96 h, four days of treatment, ATP viability
Experimental: as §1

PE904557a cells = experiment: Dose response assay, ATPlite viability, four days; format: cell-based, human; details: Homo sapiens, 96 h, four days of treatment, ATP viability, N/A = data could not be fitted
Experimental: as §1

caspase-3/7, -8 or -9 = experiment: Caspase-Glo caspase activity assay; format: cell-based, human; details: 30 μM, 24 or 48 hours, normalized to ATP viability
Experimental: Adherent cells were seeded in two identical white 96-well plates (Costar) in 100 μL of their respective media at varying densities to achieve 80% to 90% confluency at the end of the assay. After 24 hours, the media were aspirated and the cells were treated with 30 μM C-6 or a matched 0.03% (v/v) DMSO vehicle control in the corresponding media containing 2% FBS. For suspension cultures, cells were first seeded in 75 μL of media. At the start of treatment, 25 μL of a 4× concentration of C-6 or a matched (v/v) DMSO vehicle control was added to each well such that the final volume in each well was 100 μL and the final concentration of C-6 was 30 μM. For the caspase activity assays, additional wells were treated with 1 μM staurosporine. […] For the Caspase-Glo assay, cell viability was determined for the additional 96-well plate utilizing the ATPlite 1step assay system (Perkin Elmer) according to the manufacturer's instructions. For the AAF-Glo assay, the total protein in each well of the additional plate was measured using the BCA protein assay kit (Peirce, Rockford, IL, USA). Luminescence measurements were acquired utilizing a Perkin Elmer 2104 EnVision plate reader. Raw luminescence values for each assay were normalized to the DMSO vehicle control wells. […]

EC50 (MDA-MB-231 cells): 10.5 µM | EC50 (T47D cells): 8.29 µM
SMILES: COc1cc(OC)cc(C(C)c2ccc(NC(=O)OC(C)(C)C)cc2)c1 (centres unmarked) [C-6]
viability difference, normal minus tumor cells (selectivity) at 4 days, 20 µM [1]: 62% | viability at 4 days, 200 μM [2]: > 70% | effect on viability (hTERT-HMEC cells): did not significantly reduce the viability | EC50 (PE1007070 cells): 24.4 µM | EC50 (PE904557a cells): 75.7 µM | caspase activity (caspase-3/7, -8 or -9): did not induce significant caspase activity
